Laboratory results as given in paper PMC11066877, “Development and Characterization of Novel FAP-Targeted Theranostic Pairs: A Bench-to-Bedside Study” (Research, 2023).
Read-outs that look alike come from different tables or passages of the source.

Legend:
HT1080-FAP tumor = test: FAP-targeted radioligand therapy in HT1080-FAP tumor models; format: in vivo, mice
Experimental: (§1) HT1080-FAP tumor models with higher levels of FAP expression were utilized in this study. Tumor-bearing mice were subjected to therapy experiments when the tumor volume reached 50 to 180 mm^3. Tumor models with different tumor volumes were injected with different therapeutic doses. Mice bearing HT1080-FAP tumors of slightly larger tumor volumes were randomly assigned into 4 groups (n = 5 per group): control group and treatment groups with 800 μCi of [^177Lu]Lu-DOTA-FD1, 400 μCi of [^177Lu]Lu-DOTA-FD3, and 600 μCi [^177Lu]Lu-DOTA-FD3. Mice bearing HT1080-FAP tumors of slightly smaller tumor volumes were also divided into 4 groups (n = 6 per group): control group and treatment groups with 200 μCi of [^177Lu]Lu-DOTA-FD1, 200 μCi of [^177Lu]Lu-DOTA-FD2, and 200 μCi of [^177Lu]Lu-DOTA-FD3. Tumor volume and mice body weight were examined daily after a single-dose injection. Weight monitoring is expressed as a percentage of initial weight on the measurement day. Tumor volume was measured as half of the length × width squared times. Mice were euthanized when the tumor volume exceeded 1,500 mm^3, the tumor ruptured, or when it lost more than 20% of its body weight. T3M-4 tumor models with abundant stroma were established to validate the therapeutic efficacy of [^177Lu]Lu-DOTA-FD3. When the tumor volume grew to 100 to 150 mm^3, the mice were randomly divided into 2 groups (n = 7 per group): free ^177Lu treatment group and 500 μCi [^177Lu]Lu-DOTA-FD3 treatment group. Tumor volume and mice body weight were examined every 2 days.

[1] = Ex vivo biodistribution of 177Lu-labeled radioligands in tumor-free nude mice; details: mouse, blood, intravenous, 1.11 MBq, total radioactivity, 24 h p.i., read-out: accumulation in the blood pool (biodistribution)
Description: (§2) After imaging collection and image reconstruction, samples from euthanized experimental mice, including blood and multiple significant organs, were harvested and weighed. The radioactivity in each collected tissue was counted using an automated gamma counter (Wizard 2480, PerkinElmer) and the accumulation of radioactivity in different tissues and organs was quantified and expressed as %ID/g (mean ± SD). [^177Lu]Lu-DOTA-FD1 (~1.11 MBq, n = 3), [^177Lu]Lu-DOTA-FD2 (~1.11 MBq, n = 3), and [^177Lu]Lu-DOTA-FD3 (~1.11 MBq, n = 3) were injected into the tail vein of free nude mice at 6 h, 24 h, and 24 h for ex vivo biodistribution to verify the circulation time of the 3 probes in vivo. Biodistribution data from tumor-bearing mice injected with [^177Lu]Lu-DOTA-FD3 at 45 h (~1.11 MBq, n = 4) and 90 h (~1.11 MBq, n = 3) validated the prolonged enrichment of the probe at the tumor site. At the end of each probe imaging and radioactivity counting study, tumor tissues were fixed in paraformaldehyde tissue fixative. Briefly, sections of 10 μm were cut and stained for H&E following the standard protocols. IHC staining with a FAP antibody (ab227703, Abcam) was performed only on tumor tissues following accepted techniques.

[2] = Stability of 177Lu-labeled radiopharmaceuticals in FBS and PBS; format: in vitro ADME; details: 50% FBS and 50% PBS, checked at 2 h and 24 h
Experimental: To perform ^68Ga-labeling, approximately 20 nmol of FD1, FD2, or FD3 was dissolved in 20 μl of dimethyl sulfoxide and 230 μl of sterile deionized water. This mixture was added to 400 μl of ^68GaCl3 solution (containing 37 MBq) in 0.1 M HCl, with pH adjusted to 4.0 using 0.1 M NH4OAC. The mixture was incubated at 100 °C for 10 min without any additional purification steps. For ^177Lu-labeling, high-purity radionuclide ^177LuCl3 in 0.04 M HCl (3.9 GBq in 97 μl) was purchased from ITM (Munich, Germany). ^177LuCl3 solution (555 MBq in 0.04 M HCl) was added to 500 μl of 1M NH4OAC (pH = 5), followed by the addition of 375 nmol of FD1, FD2, or FD3. The solution was shaken at a temperature of 100 °C for a duration of 30 min. Instant thin-layer chromatography (iTLC; Eckert & Ziegler Radiopharma Inc.) was used to evaluate the RCP of the final products. For iTLC, the mobile phase consisted of 1 M NH4OAC and methyl alcohol in a ratio of 1:1. The final solution must be adjusted to pH 7.0 before being injected into the experimental mice via the tail vein. The stability of ^177Lu-labeled radiopharmaceuticals was evaluated in a mixture of 50% FBS and 50% PBS at 2 h and 24 h after preparation. In the process of preparing each [^68Ga]Ga-DOTA-FD1 for clinical imaging, the end product underwent sterilization by passing it through a 0.22-μm Millipore filter.

T3M-4 tumor = test: Radioligand therapy in T3M-4 pancreatic cancer models; format: in vivo, mice; details: T3M-4 models
Experimental: as §1, with “When the tumor volume grew to 100 to 150 mm^3, the mice were randomly divided into 2 groups (n = 7 per group): free ^177Lu treatment group and 500 μCi [^177Lu]Lu-DOTA-FD3 treatment group. Tumor volume and mice body weight were examined every 2 days.” left out

[3] = Ex vivo biodistribution of [177Lu]Lu-DOTA-FD3 in HT1080-FAP tumor models; design: species or system mice; details: nude (thymus-free), mouse, 1.11 MBq, total radioactivity
Description: as §2

[4] = average tumor volume 180 mm^3 at onset, single dose 400 μCi or 600 μCi

tissue uptake at 24 h [1]: 28.1 ± 3.52 %ID/g | stable in FBS and PBS, no significant demetallation [2]: at least 24 h | mice weight versus free 177Lu treatment group (T3M-4 tumor; 500 μCi): slightly dropped | tissue uptake at 45 h ([3]; 45 h, read-out: tumor uptake (biodistribution)): 10.5 ± 1.02 %ID/g | tissue uptake at 90 h ([3]; 90 h, read-out: tumor uptake (biodistribution)): 12.4 ± 3.12 %ID/g | tissue uptake at 45 h ([3]; blood, 45 h p.i., read-out: blood pool retention (biodistribution)): 16.3 ± 2.5 %ID/g | tissue uptake at 90 h ([3]; blood, 90 h p.i., read-out: blood pool retention (biodistribution)): 11.5 ± 1.54 %ID/g
Structure (SMILES): CCCCCC(=O)N[C@H]1CSCc2cc(CSCCNC(=O)[C@H](CCCCNC(=O)CCCc3ccc(I)cc3)NC(=O)[C@@H](NC(=O)[C@H](CCSC)NC(=O)CN3CCN(CC(=O)O)CCN(CC(=O)O)CCN(CC(=O)O)CC3)C(C)C)cc(c2)CSC[C@@H](C(=O)O)NC(=O)[C@H](Cc2ccccc2)NC(=O)[C@H](CCC(N)=O)NC(=O)[C@H]([C@@H](C)O)NC(=O)[C@@H]2CCCN2C(=O)[C@@H]2CCCN2C1=O [[^177Lu]Lu-DOTA-FD3, metal not drawn]
tumor growth at the end of the study (HT1080-FAP tumor; average tumor volume 50 mm^3 at onset, single dose 200 μCi): substantially inhibited the tumor growth | mice that acquired complete response (CR) (HT1080-FAP tumor; average tumor volume 50 mm^3 at onset, single dose 200 μCi, 6 mice per group): 3 out of the 6 | tumor relapse (HT1080-FAP tumor; [4]): relapsed from day 14 onward | tumor volume change after treatment (HT1080-FAP tumor; [4]): began to shrink from day 2 | tumor volume until the end of the observation (T3M-4 tumor; tumor volume around 135 mm^3 at onset, [177Lu]Lu-DOTA-FD3 at 500 μCi): satisfactorily controlled
